Measured values from patent US20100086602A1, “PHARMACEUTICAL COMPOSITION CONTAINING STATIN-ENCAPSULATED NANOPARTICLE” (priority 2006, published 2010).
Entries after “also recorded” stand apart in the source; their conditions may differ. One block for each compound: values may come before it.

Legend:
[1] = system: muscular tissues of ischemic hindlimb; design: species or system mice; details: mouse, in vivo
Method: (§1) Male C57BL/6J wild-type mice were bred and maintained in the Laboratory of Animal Experiments at Kyushu University. After anesthesia with an intraperitoneal injection of ketamine hydrochloride and xyladine hydrochloride, animals underwent surgical ligation and resection of the left femoral artery to produce unilateral hindlimb ischemia. […] As a control, a group of PLGA-FITC-mice (FITC group) received intramuscular injections of FITC-loaded PLGA nanoparticles (0.16 mg/100 μl), a group of PEG/CS-PLGA-FITC-mice (PEG/CS-FITC group) received intramuscular injections of FITC-loaded PEG/CS PLGA nanoparticles (0.16 mg/100 μl), and another group of mice (NT group) received no treatment.

[2] = system: unilateral hindlimb ischemia; assay: Arteriogenesis by immunohistochemical staining with α-SMA; format: in vivo, mice; details: day 14 after hindlimb ischemia; 0.01 mg pitavastatin intramuscular
Method: (§2) A group of PLGA-Pit-mice (PLGA-Pit group) and a group of PEG/CS-PLGA-Pit-mice (PEG/CS-Pit group) received intramuscular injections of pitavastatin-loaded PLGA nanoparticles (0.18 mg/100 μl) and pitavastatin-loaded PEG/CS-PLGA nanoparticles (0.44 mg/100 μl, each containing 0.01 mg of pitavastatin), respectively. As control, a group of PLGA-mice (PLGA group) received intramuscular injections of PLGA nanoparticles (0.18 mg/100 μl) and another group of mice (NT group) received no treatment.
Arteriogenesis was determined by immunohistochemical staining with α-SMA.

hindlimb ischemia [3] = assay: Partial pressure ratio of oxygen in arterial and venous blood during muscular exercise of ischemic hindlimb; format: in vivo, Japanese rabbit; details: 35 days after ischemia; exercise by electric stimulus for 30 minutes; 0, 15 and 30 minutes
Method: Japanese rabbits (2.7 to 3.2 kg) underwent surgical ligation and resection of the unilateral femoral artery to produce hindlimb ischemia. After 7 days, animals were randomized to four groups: PLGA-pitavastatin group, PLGA-FITC group, pitavastatin group and PBS group, and received therapeutic substances by intra-ischemic-muscular injection of 5 ml (concentration of pitavastatin-loaded nanoparticle 6 mg/ml, corresponding to 0.33 mg/ml of pitavastatin). After 28 days from intramuscular injection (35 days after ischemia), animals were performed angiography. Mice were inserted catheters (5 Fr) from right internal carotid artery and the catheters were placed in left internal iliac artery under fluoroscopic control. […] 5 mm of grids were prepared within the range surrounded by lower end of femur (upper end), lower end of quadriceps (lower end), arteria iliaca interna (trunks are not counted, inner end) and distal portion of severed blood vessel (outer end). Angiographic score was calculated by dividing the number of grids in which blood vessel is found by total number of grids.
The effect of nanostatin on insufficient blood from at ischemic hindlimb on muscular exercising is examined. […] The partial pressure ratio of oxygen in arterial and venous blood in each time point was determined. The concentration of hemoglobine was determined at 0 minute. […]

[4] = system: unilateral hindlimb ischemia; assay: Laser Doppler perfusion imaging of limb blood flow after hindlimb ischemia; format: in vivo, mice; details: single intramuscular injection containing 0.01 mg statin (0.5 mg/kg), days 0, 3, 7 and 14, versus no-treatment
Method: as §2

[5] = system: unilateral hindlimb ischemia; assay: Capillary density by immunohistochemical staining with anti-mouse PECAM-1 (CD31) antibody; format: in vivo, mice; details: day 14 after hindlimb ischemia; 0.01 mg statin intramuscular
Method: as §2

hindlimb ischemia [6] = assay: Angiography 35 days after hindlimb ischemia (angiographic score); format: in vivo, Japanese rabbits; details: Mean±SE; 35 days after ischemia, 28 days after intramuscular injection of 5 ml (0.33 mg/ml pitavastatin)
Method: Japanese rabbits (2.7 to 3.2 kg) underwent surgical ligation and resection of the unilateral femoral artery to produce hindlimb ischemia. After 7 days, animals were randomized to four groups: PLGA-pitavastatin group, PLGA-FITC group, pitavastatin group and PBS group, and received therapeutic substances by intra-ischemic-muscular injection of 5 ml (concentration of pitavastatin-loaded nanoparticle 6 mg/ml, corresponding to 0.33 mg/ml of pitavastatin). After 28 days from intramuscular injection (35 days after ischemia), animals were performed angiography. Mice were inserted catheters (5 Fr) from right internal carotid artery and the catheters were placed in left internal iliac artery under fluoroscopic control. 0.25 mg of Millisrol were injected into artery through catheters, followed by injection of imaging agents at the rate of 1 ml/second for 5 seconds to perform angiography. An assessment for the number of blood vessel was carried out by using static images at 3 second after injection of imaging agents. 5 mm of grids were prepared within the range surrounded by lower end of femur (upper end), lower end of quadriceps (lower end), arteria iliaca interna (trunks are not counted, inner end) and distal portion of severed blood vessel (outer end). Angiographic score was calculated by dividing the number of grids in which blood vessel is found by total number of grids.

hindlimb ischemia [7] = assay: Recovery rate of ischemic tissues, pitavastatin dose comparison (FIG. 15); format: in vivo, mice; details: intramuscular, one portion; only pitavastatin 0.4, 4 and 20 mg/kg or PLGA-pitavastatin; days 3, 7 and 14
Method: The recovery rate of ischemic tissues were determined for ischemic mice injected intramuscularly with only nanoparticles, only pitavastatin (0.4, 4 and 20 mg/kg) or PLGA-pitavastatin in one portion.

[8] = Serological assessment 14 days after hindlimb ischemia; format: in vivo, mice
Method: as §1
There were no difference between each group in the total cholesterol, triglyceride, myoglobin, CK, BUN and Cre values in serum.

Compound: FITC
nanoparticles remaining in muscular tissues (fluorescence) [1]: nanoparticles remain in muscular tissues on day 7

Compound: O=C(O)C[C@H](O)C[C@H](O)/C=C/c1c(C2CC2)nc2ccccc2c1-c1ccc(F)cc1 [pitavastatin]
α-SMA positive vascular structure (arteriogenesis) [2]: comparable to no-treatment group
partial pressure ratio of oxygen in arterial and venous blood during muscular exercise (hindlimb ischemia [3]): increases of partial pressure ratio of oxygen in arterial and venous blood were shown
limb blood flow at ischemic side (LDPI index, ratio of ischemic to normal limb) [4]: comparable to no-treatment group
limb blood flow at ischemic side (LDPI index, ratio of ischemic to normal limb) ([4]; listed as Pit): no improvement of blood flow
capillary density, endothelial cells (CD31 positive cells) [5]: comparable to no-treatment group
Angiographic score (hindlimb ischemia [6]): 0.51±0.04
recovery of ischemic tissues / angiogenesis (ratio of ischemic region to normal region) (hindlimb ischemia [7]): does not result in angiogenesis; also recorded: No angiogenesis

BUN ([8]; serum, n = 4): 30.3 ± 2.8 mg/dL
CK ([8]; serum, n = 4): 159.0 ± 37.7 IU/L
Cre ([8]; serum, n = 4): 0.083 ± 0.009 mg/dL
myoglobin ([8]; serum, n = 4): <10 ng/mL
Compound: CC(C)c1c(C(=O)Nc2ccccc2)c(-c2ccccc2)c(-c2ccc(F)cc2)n1CC[C@@H](O)C[C@@H](O)CC(=O)O [atorvastatin]
signs of rhabdomyolysis ([8]; intramuscularly injected mice): Neither group of atorvastatin nor atorvastatin-loaded nanoparticle intramuscularly injected mice showed the signs of rhabdomyolysis
total cholesterol ([8]; serum, n = 4): 66.0 ± 3.2 mg/dL
triglyceride ([8]; serum, n = 4): 13.5 ± 1.8 mg/dL
